Laboratory results as given in BindingDB's records for doi:10.1111/cbdd.12307 (Peking University, 2014).

These compounds were tested against T1, Phospholipase A2, membrane associated (Homo sapiens, UniProt P14555) (assay: Inhibitory Activity Assay). Conditions: pH 8.
T1 sequence (P14555 whole entry): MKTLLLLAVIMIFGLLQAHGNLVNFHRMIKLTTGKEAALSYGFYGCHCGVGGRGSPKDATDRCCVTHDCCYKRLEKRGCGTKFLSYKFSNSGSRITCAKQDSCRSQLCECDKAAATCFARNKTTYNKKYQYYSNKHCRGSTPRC
Procedure: The reaction mixture contained 160 uL of reaction buffer [50 mM Tris-HCl (pH 8.0), 100 mM NaCl, 5 ug/mL bovine serum albumin (BSA), 5 uM CaCl2, and 10 mM anilinonaphthalene sulfonate (ANS)], 20 uL of substrate stock solution (2 mM DMPC), and 2 mM of sodium deoxycholate in water. After 5 min of sonication, 10 uL of inhibitor stock solution (in DMSO) were incubated at 28 uC for 10 min. The reactions were started by adding 10 uL of hnps-PLA2 stock solution (0.1 mg/mL) and monitored by excitation at 377 nm and emission at 470 nm.

Row | SMILES | IC50 [µM]
1 | O=C(CCc1ccccc1)CC[C@H](NC(=O)OCC1c2ccccc2-c2ccccc21)C(=O)O [DCSD 001850 (5)] | 34.5
2 | O=C(N[C@H](Cc1ccc2ccccc2c1)C(=O)O)OCC1c2ccccc2-c2ccccc21 [DCSD 002847 (2)] | 8.6
3 | O=C(N[C@@H](Cc1ccc([NH+]([O-])O)cc1)C(=O)O)OCC1c2ccccc2-c2ccccc21 (some centres not stated) [DCSD 001360 (3)] | 21.4
4 | O=C(COc1ccc(/C=N/NC(=O)c2ccccc2[NH+]([O-])O)cc1)Nc1cccc([NH+]([O-])O)c1 (configuration not stated) [SPECS AG-690/40696769 (6)] | 9
5 | O=C(COc1ccc2ccccc2c1)N/N=C/c1cccc(OC(=O)c2cc([NH+]([O-])O)cc([NH+]([O-])O)c2)c1 (configuration not stated) [SPECS AG-690/40108589 (7)] | 12.2

Further compounds by falling IC50, results first:

Row | IC50 [µM] | SMILES
6 | 47.5 | O=C(N[C@H](Cc1ccccc1)C(=O)O)OCC1c2ccccc2-c2ccccc21 [DCSD 002855 (1)]
7 | 41 | O=C(N[C@@H](Cc1ccc(O)c([NH+]([O-])O)c1)C(=O)O)OCC1c2ccccc2-c2ccccc21 (some centres not stated) [DCSD 002267 (4)]
